The values that follow come from patent US20150119251A1, “AGRICULTURAL PLANT-PROTECTING AGENTS CONTAINING DIPEPTIDE DERIVATIVE AS ACTIVE INGREDIENT” (REPUBLIC OF KOREA (RURAL DEVELOPMENT ADMINISTRATION), priority 2012, published 2015).

Experiment [1] deals with tobacco bacterial rot (Pectobacterium carotovorum). The experiment can be described thus: Suppression of tobacco bacterial rot. The format is in vivo, Pectobacterium carotovorum SCC1. As for the experimental part: A tobacco or cucumber was sown in a plastic pot with a diameter of 10 cm×13 cm, and then, 12 pots were added in a yellow box. After seeding, 100 μL was inoculated to the cotyledons of cucumber or tobacco, in which first leaf was started to come out. The test compounds were dissolved in 20% methanol to make a stock solution, and then, the stock solution was diluted to the concentrations of 1, 10, and 100 ppm.
After 7 days, the pathogen of a plant bacterial rot (Pectobacterium carotovorum SCC1) was cultured in a TSA medium for 27 hours; and then, the cultured pathogen was sprayed in a concentration of 10^8 cfu/mL to the plant leaves, and cultured at 30° C. for 3 days. The plant anthracnose germ (Colletotrichum orbiculare) was cultured in a GBA (Green bean agar) medium to induce spores for about 2 to 3 weeks. The germ was sprayed in a concentration of 10^5 cell/mL and then cultured at 26° C. for 1 day. When fourth or fifth leaf came out, 200 μL of each of the test compounds was inoculated to third leaf. After 7 days, the pathogen of the plant bacterial rot was sprayed to the plant leaves in the concentration of 10^8 cfu/mL, and then cultured at 30° C. for 3 days.
The investigation was performed with naked eyes, and the lesion relative areas were investigated until 0 to 100% according to the shortness degrees of the bacterial rot. The anthracnose was investigated by counting the number of lesions occurred on the leaves.

Experiment [2] concerns cucumber leaves. In words: Plant growth promotion, width of cucumber leaf. The class given is in vivo. Particulars: non-treated = 100.0 (92.1 mm), unit of the source corrected. As for the experimental part: The active ingredients (Compounds 5 to 8, 14, and 15) were drenched to the leaves of a plant (pepper, potato, tomato, tobacco, cucumber, and Chinese cabbage), and then, after 7 days, the plant lengths were measured. Since then, the plant disease pathogen was inoculated, and then, after 3 to 5 days, the sizes of the plant leaves were measured and compared with the control group to obtain the relative growth degrees.

For experiment [3], the system named is pepper phytophthora blight (Phytopthora capsici). In words: Suppression of pepper phytophthora blight on leaves. The format is in vivo. Particulars: for Lesion outbreak rate: pepper leaves; for Outbreak of the phytophthora blight on the leaves: drench-treated to the roots. The protocol: The peppers were raised in the same method as Example 3, and then, the test compounds were dissolved in 20% methanol to make a stock solution, and a stock was diluted to the concentrations of 0.1, 1.0, and 10.0 ppm. The test solutions were sprayed on the leaves or drench-treated on the leaves. After 7 days, the pathogen of plant bacterial rot (Pectobacterium carotovorum SCC1) was cultured in a TSA medium for 27 hours, and then, wetted on an 8 mm diameter paper disc in the concentration of 10^8 cfu/mL. The paper disc was located in the center of the leaves that were cut roundly, and then, after about 7 days, the lesion area was measured. In the case of phytophthora, the potato agar medium cultured with the phytophthora (Phytophthora capsici) was cut in the internal diameter size of 5 mm with a cork borer, and then inoculated to the leaves. After 7 days, the lesion area was observed. In the case of a bacterial rot, when Compounds 6, 89, 93, and 95 were sprayed on the pepper leaves, the bacterial rot was not found in the concentration of 1 or 10 ppm as compared with the non-treated group. […] The Suppression of lesion formation on the leaves when these compounds were drench-treated to the roots can be explained as it was resulted from that systemic disease resistance was induced in the whole plant. These test results are illustrated in the photographs of FIGS. 5 to 9.

The mark [4] stands for this setting: drench-treated, 1.0 or 10.0 ppm.

Square brackets hold non-standard residues; d marks the D form. Peptide text beside a SMILES is read from it. * marks the point of attachment. Trt = c1ccc(C(c2ccccc2)(c2ccccc2)*)cc1; Boc = CC(C)(C)OC(=O)*; Bz = O=C(c1ccccc1)*; OBn = c1ccc(CO*)cc1; OAll = C=CCO*

Regarding `COC(=O)[C@H](C)NC(=O)[C@H](Cc1ccc(O)cc1)NC(=O)OC(C)(C)C` [Compound 15], the Lesion outbreak rate was 75% in experiment [1] (Table 6, tobacco, 1 ppm); 63% in experiment [1] (Table 6, tobacco, 10 ppm); 50% in experiment [1] (Table 6, tobacco, 100 ppm). In addition, the Width of cucumber leaf (relative value to the non-treated group) was 98.9% in experiment [2] (1.0 ppm), 113% in experiment [2] (10 ppm) and 112% in experiment [2] (100 ppm).

For `COC(=O)[C@@H]1CCCN1C(=O)[C@H](C)NC(=O)OC(C)(C)C` [Compound 86] (Boc-Ala-Pro-OMe), the Lesion outbreak rate in experiment [3] (0.1 ppm) is reported as 58 area %; in experiment [3] (1.0 ppm), 83 area %.

For the compound `C=CCOC(=O)C[C@H](NC(=O)OC(C)(C)C)C(=O)N[C@@H](Cc1ccccc1)C(=O)OC` [Compound 92] (Boc-Asp(OAll)-Phe-OMe), the Lesion outbreak rate in experiment [3] (0.1 ppm) worked out at 25 area %; in experiment [3] (1.0 ppm), 38 area %.

With `COC(=O)CNC(=O)[C@@H](NC(=O)OC(C)(C)C)C(C)C` [Compound 5] (Boc-Val-Gly-OMe), the Lesion outbreak rate amounted to 73% in experiment [1] (Table 3, tobacco, 1 ppm); 40% in experiment [1] (Table 3, tobacco, 10 ppm); 7.7% in experiment [1] (Table 3, tobacco, 100 ppm). The Width of cucumber leaf (relative value to the non-treated group) in experiment [2] (1.0 ppm) is 100%; in experiment [2] (10 ppm) it was 111%; in experiment [2] (100 ppm) it was 121%.

`COC(=O)CNC(=O)[C@@H]1CCCN1C(C)=O` [Compound 105] (Ac-Pro-Gly-OMe): the values for the Lesion outbreak rate in experiment [3] (0.1 ppm) and in experiment [3] (1.0 ppm) were 18 area % and 21 area %, respectively.

For the compound `COC(=O)CNC(=O)[C@H](CC(C)C)NC(C)=O` [Compound 104] (Ac-Leu-Gly-OMe), the figures for the Lesion outbreak rate in experiment [3] (0.1 ppm) and in experiment [3] (1.0 ppm) were 22 area % and 18 area %, respectively.

As to `CCC(C)C(N)C(=O)NC(C)C(=O)OC` (stereo not shown) [Compound 109], the Lesion outbreak rate was found to be 25 area % in experiment [3] (0.1 ppm) and 9.4 area % in experiment [3] (1.0 ppm).

`COC(=O)[C@H](Cc1ccccc1)NC(=O)[C@H](CC(=O)OCc1ccccc1)NC(=O)c1ccccc1` [Compound 101] (Bz-Asp(OBn)-Phe-OMe): the figures for the Lesion outbreak rate in experiment [3] (0.1 ppm) and in experiment [3] (1.0 ppm) were 11 area % and 27 area %, respectively.

As for `COC(=O)CNC(=O)[C@@H](NC(C)=O)C(C)C` [Compound 103] (Ac-Val-Gly-OMe), the Lesion outbreak rate in experiment [3] (0.1 ppm) is 15 area %; in experiment [3] (1.0 ppm), 28 area %.

With `COC(=O)[C@@H]1CCCN1C(=O)[C@@H](CSC(c1ccccc1)(c1ccccc1)c1ccccc1)NC(=O)OC(C)(C)C` [Compound 77] (Boc-[dC](Trt)-Pro-OMe), the Lesion outbreak rate worked out at 46 area % in experiment [3] (0.1 ppm) and 36 area % in experiment [3] (1.0 ppm).

Consider `C=CCOC(=O)C[C@H](NC(=O)c1ccccc1)C(=O)N[C@@H](Cc1ccccc1)C(=O)OC` [Compound 99] (Bz-Asp(OAll)-Phe-OMe), for which the values for the Lesion outbreak rate in experiment [3] (0.1 ppm) and in experiment [3] (1.0 ppm) were 36 area % and 18 area %, respectively.

In the case of `COC(=O)[C@@H]1CCCN1C(=O)[C@H](Cc1c[nH]c2ccccc12)NC(=O)OC(C)(C)C` [Compound 84] (Boc-Trp-Pro-OMe), the Lesion outbreak rate in experiment [3] (0.1 ppm) is reported as 35 area %; in experiment [3] (1.0 ppm), 33 area %.

As to `COC(=O)[C@@H]1CCCN1C(=O)[C@H](N)CS` [Compound 78] (H-[dC]-Pro-OMe), the Lesion outbreak rate in experiment [3] (0.1 ppm) was 58 area %; in experiment [3] (1.0 ppm), 47 area %.

`COC(=O)C[C@H](NC(=O)c1ccccc1)C(=O)N[C@@H](Cc1ccccc1)C(=O)OC` [Compound 97] (Bz-Asp(OMe)-Phe-OMe): the Lesion outbreak rate was 22 area % in experiment [3] (0.1 ppm) and 25 area % in experiment [3] (1.0 ppm).

As to `COC(=O)CNC(=O)[C@@H](N)CC(C)C` [Compound 4] (H-Leu-Gly-OMe), the Lesion outbreak rate in experiment [1] (Table 3, tobacco, 1 ppm) worked out at 47%; in experiment [1] (Table 3, tobacco, 10 ppm), 80%; in experiment [1] (Table 3, tobacco, 100 ppm) it was 90%. Further, the “Outbreak of the phytophthora blight on the leaves” value (“Outbreak … on the leaves” for short) in experiment [3] is on record as “significantly decreased”.

For the compound `COC(=O)C(CC(C)C)NC(=O)C(N)C(C)O` (stereo not drawn) [Compound 8] (H-Thr-Leu-OMe; configuration not given here), the Lesion outbreak rate in experiment [1] (Table 3, tobacco, 1 ppm) came to 43%; in experiment [1] (Table 3, tobacco, 10 ppm) it was 57%; in experiment [1] (Table 3, tobacco, 100 ppm) it was 0%. In addition, the figures for the Width of cucumber leaf (relative value to the non-treated group) in experiment [2] (1.0 ppm), in experiment [2] (10 ppm) and in experiment [2] (100 ppm) were 122%, 123% and 120%, respectively.

For `COC(=O)C(CC(C)C)NC(=O)C(NC(=O)OC(C)(C)C)C(C)O` (stereo not drawn) [Compound 7] (Boc-Thr-Leu-OMe; configuration not given here), the Lesion outbreak rate in experiment [1] (Table 3, tobacco, 1 ppm) turned out to be 40%; in experiment [1] (Table 3, tobacco, 10 ppm) it was 27%; in experiment [1] (Table 3, tobacco, 100 ppm) it was 20%. Further, the Width of cucumber leaf (relative value to the non-treated group) in experiment [2] (1.0 ppm) came to 110%; in experiment [2] (10 ppm), 121%; in experiment [2] (100 ppm), 121%.

Consider `CCOC(=O)[C@H](C)NC(=O)CNC(=O)OC(C)(C)C` [Compound 82] (Boc-Gly-Ala-OEt), for which the Lesion outbreak rate in experiment [3] (0.1 ppm) is on record as 74 area %; in experiment [3] (1.0 ppm), 60 area %.

As to `COC(=O)[C@H](C)NC(=O)[C@@H](N)C(C)C` [Compound 108] (H-Val-Ala-OMe), the Lesion outbreak rate in experiment [3] (0.1 ppm) is reported as 14 area %; in experiment [3] (1.0 ppm), 18 area %.

For `C=CCOC(=O)C[C@H](NC(C)=O)C(=O)N[C@@H](Cc1ccccc1)C(=O)OC` [Compound 98] (Ac-Asp(OAll)-Phe-OMe), the Lesion outbreak rate in experiment [3] (0.1 ppm) is reported as 16 area %; in experiment [3] (1.0 ppm) it was 12 area %.

As for `COC(=O)[C@@H]1CCCN1C(=O)[C@@H](N)Cc1c[nH]c2ccccc12` [Compound 107] (H-Trp-Pro-OMe), in experiment [3] (directly sprayed to the leaves, phytophthora blight or bacterial rot), the “Effect on suppressing the outbreak of pepper phytophthora blight or bacterial rot as compared with the non-treated control group” value is listed as “excellent”. The “Outbreak … on the leaves” value in experiment [3] is “significantly decreased”. The “Lesion formation, pepper phytophthora test” value in experiment [3] (setting [4]) was “no the lesion formations”; in experiment [3] (sprayed on the leaves, 1 or 0.1 ppm), “no the lesion formations”. The figures for the Lesion outbreak rate in experiment [3] (0.1 ppm) and in experiment [3] (1.0 ppm) were 9.3 area % and 3.5 area %, respectively.

For the compound `COC(=O)[C@H](Cc1ccccc1)NC(=O)[C@H](CC(=O)O)NC(C)=O` [Compound 102] (Ac-Asp-Phe-OMe), the Lesion outbreak rate in experiment [3] (0.1 ppm) was 20 area %; in experiment [3] (1.0 ppm) it was 15 area %.

With `COC(=O)[C@@H]1CCCN1C(=O)CNC(=O)OC(C)(C)C` [Compound 106] (Boc-Gly-Pro-OMe), the Lesion outbreak rate was determined as 25 area % in experiment [3] (0.1 ppm) and 26 area % in experiment [3] (1.0 ppm).

In the case of `COC(=O)CNC(=O)[C@H](CO)NC(=O)OC(C)(C)C` [Compound 81] (Boc-Ser-Gly-OMe), the Lesion outbreak rate amounted to 68 area % in experiment [3] (0.1 ppm) and 58 area % in experiment [3] (1.0 ppm).

As to `CCOC(=O)[C@H](Cc1ccccc1)NC(=O)[C@H](CC(C)C)NC(=O)OC(C)(C)C` [Compound 83] (Boc-Leu-Phe-OEt), the Lesion outbreak rate in experiment [3] (0.1 ppm) is 80 area %; in experiment [3] (1.0 ppm), 57 area %.

For `COC(=O)[C@H](Cc1ccccc1)NC(=O)[C@H](CC(=O)OCc1ccccc1)NC(=O)OC(C)(C)C` [Compound 94] (Boc-Asp(OBn)-Phe-OMe), the “Outbreak … on the leaves” value in experiment [3] was “significantly decreased”. The “Lesion formation, pepper phytophthora test” value in experiment [3] (setting [4]) was “no the lesion formations”. Besides, the figures for the Lesion outbreak rate in experiment [3] (0.1 ppm) and in experiment [3] (1.0 ppm) were 12 area % and 6.8 area %, respectively.
